Assay results reported in article PMC7714403 (JCI Insight, 2020).

Assays:
MOLM13-RES-Luc+ cells = assay: MOLM13-RES-Luc+ xenograft model; type: in vivo, NSG mice; settings: 3 weeks; for Median survival: TP-0903 60mg/kg or gilteritinib 30 mg/kg once daily 5 days/week
Procedure: Engraftment and growth of leukemic cells were monitored by noninvasive bioluminescence imaging in cell line xenograft models, as previously done ([47]). Details on the cell engraftment and dosing in mouse models are provided in the Supplemental Methods.
Cell viability of primary samples
HS5-GFP human bone marrow stromal cells were plated and cultured for 72 hours to near confluence.
MOLM13 cells were then seeded onto HS5-GFP cells to establish a co-culture. Twenty-four hours later, cells were treated with increasing concentrations of drug for an additional 72 hours. MOLM13 and HS5-GFP cells were then separated and MTT assay s were performed for cell viability assessment of each cell population.
For murine or human primary AML cells, 100,000 cells/well were plated in a 96-well plate and treated with increasing concentrations of drug. Cell viability, via trypan blue, was measured every 24 hours. If the viability fell below 50% or at 72 hours of treatment, whichever came earlier, cell viability of each plate was measured via CellTiter-Glo. Primary human AML cells were obtained from the OSUCCC Leukemia Tissue Bank Shared […]
Primary AML samples were analyzed by targeted gene sequencing of 80 genes, as previously described (1). Samples were pooled and analyzed on a MiSeq system using the Illuminia MiSeq Reagent Kit v3. […]
Luc+ or MOLM13-Res -Luc+ cells, 0.5 million OCI-AML3 -Luc+ cells, and 10,000 Ba/F3-FLT3-ITD/F691L-GFP+ cells. Weekly tumor engraftment of cell line xenograft models were assessed after injection of D-luciferin (150mg/kg i.p.; Gold Biotechnology, Inc, St. Louis, MO) on Xenogen IVIS-200 imaging system (Perkin Elmer, Waltham, MA) or GFP monitoring by peripheral blood via BD LSR II flow cytometer (BD Biosciences, San Jose, CA). Signal intensity was analyzed using Living Image Software (PerkinElmer) or FlowJo v10.0.08 software (FlowJo, LLC, Ashland, OR). […]
At indicated time points, cells were collected and washed with PBS. CD11b expression was measured using anti-CD11b -APC antibody (BioLegend, San Diego, CA). […]

LATS2 = molecular target: T1, LATS2 (Homo sapiens, UniProt Q9NRM7); assay: KiNativ, OCI cells live cell; type: cell-based
T1 sequence (Q9NRM7 1-1088): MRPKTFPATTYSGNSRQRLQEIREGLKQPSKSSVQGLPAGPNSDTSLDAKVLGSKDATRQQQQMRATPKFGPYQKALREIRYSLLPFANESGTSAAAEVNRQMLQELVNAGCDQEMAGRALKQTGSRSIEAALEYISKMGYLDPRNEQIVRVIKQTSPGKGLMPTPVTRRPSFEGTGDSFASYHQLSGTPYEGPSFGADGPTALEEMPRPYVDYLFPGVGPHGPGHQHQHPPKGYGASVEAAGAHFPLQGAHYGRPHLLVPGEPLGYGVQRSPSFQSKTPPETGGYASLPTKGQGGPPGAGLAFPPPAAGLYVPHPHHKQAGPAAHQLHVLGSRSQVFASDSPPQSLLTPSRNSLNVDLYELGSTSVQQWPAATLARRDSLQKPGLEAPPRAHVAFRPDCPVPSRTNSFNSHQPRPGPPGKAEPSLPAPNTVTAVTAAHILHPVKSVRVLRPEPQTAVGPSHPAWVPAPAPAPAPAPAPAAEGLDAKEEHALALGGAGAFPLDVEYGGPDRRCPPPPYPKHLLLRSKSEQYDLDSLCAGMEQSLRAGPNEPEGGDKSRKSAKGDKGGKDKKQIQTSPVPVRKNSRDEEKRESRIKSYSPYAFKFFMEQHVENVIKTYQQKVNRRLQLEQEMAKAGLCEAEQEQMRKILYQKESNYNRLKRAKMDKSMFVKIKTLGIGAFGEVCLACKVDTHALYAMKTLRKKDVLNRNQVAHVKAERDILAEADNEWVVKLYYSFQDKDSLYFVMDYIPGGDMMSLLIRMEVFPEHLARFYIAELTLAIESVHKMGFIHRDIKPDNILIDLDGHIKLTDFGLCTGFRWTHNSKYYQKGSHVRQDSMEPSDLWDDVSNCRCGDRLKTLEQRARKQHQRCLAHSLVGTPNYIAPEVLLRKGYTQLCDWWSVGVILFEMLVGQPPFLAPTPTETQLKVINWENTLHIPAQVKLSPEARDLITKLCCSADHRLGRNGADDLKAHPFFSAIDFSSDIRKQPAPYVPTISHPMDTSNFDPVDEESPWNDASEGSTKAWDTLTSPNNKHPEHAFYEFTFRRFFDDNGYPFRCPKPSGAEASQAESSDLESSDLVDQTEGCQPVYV

CHED = CHED (Homo sapiens, UniProt Q14004); assay: KiNativ, OCI cells live cell; type: cell-based; settings: labeling site Lys2, peptide DIKCSNILLNNR
Chain of CHED (Q14004 whole entry, the tested form may be a part): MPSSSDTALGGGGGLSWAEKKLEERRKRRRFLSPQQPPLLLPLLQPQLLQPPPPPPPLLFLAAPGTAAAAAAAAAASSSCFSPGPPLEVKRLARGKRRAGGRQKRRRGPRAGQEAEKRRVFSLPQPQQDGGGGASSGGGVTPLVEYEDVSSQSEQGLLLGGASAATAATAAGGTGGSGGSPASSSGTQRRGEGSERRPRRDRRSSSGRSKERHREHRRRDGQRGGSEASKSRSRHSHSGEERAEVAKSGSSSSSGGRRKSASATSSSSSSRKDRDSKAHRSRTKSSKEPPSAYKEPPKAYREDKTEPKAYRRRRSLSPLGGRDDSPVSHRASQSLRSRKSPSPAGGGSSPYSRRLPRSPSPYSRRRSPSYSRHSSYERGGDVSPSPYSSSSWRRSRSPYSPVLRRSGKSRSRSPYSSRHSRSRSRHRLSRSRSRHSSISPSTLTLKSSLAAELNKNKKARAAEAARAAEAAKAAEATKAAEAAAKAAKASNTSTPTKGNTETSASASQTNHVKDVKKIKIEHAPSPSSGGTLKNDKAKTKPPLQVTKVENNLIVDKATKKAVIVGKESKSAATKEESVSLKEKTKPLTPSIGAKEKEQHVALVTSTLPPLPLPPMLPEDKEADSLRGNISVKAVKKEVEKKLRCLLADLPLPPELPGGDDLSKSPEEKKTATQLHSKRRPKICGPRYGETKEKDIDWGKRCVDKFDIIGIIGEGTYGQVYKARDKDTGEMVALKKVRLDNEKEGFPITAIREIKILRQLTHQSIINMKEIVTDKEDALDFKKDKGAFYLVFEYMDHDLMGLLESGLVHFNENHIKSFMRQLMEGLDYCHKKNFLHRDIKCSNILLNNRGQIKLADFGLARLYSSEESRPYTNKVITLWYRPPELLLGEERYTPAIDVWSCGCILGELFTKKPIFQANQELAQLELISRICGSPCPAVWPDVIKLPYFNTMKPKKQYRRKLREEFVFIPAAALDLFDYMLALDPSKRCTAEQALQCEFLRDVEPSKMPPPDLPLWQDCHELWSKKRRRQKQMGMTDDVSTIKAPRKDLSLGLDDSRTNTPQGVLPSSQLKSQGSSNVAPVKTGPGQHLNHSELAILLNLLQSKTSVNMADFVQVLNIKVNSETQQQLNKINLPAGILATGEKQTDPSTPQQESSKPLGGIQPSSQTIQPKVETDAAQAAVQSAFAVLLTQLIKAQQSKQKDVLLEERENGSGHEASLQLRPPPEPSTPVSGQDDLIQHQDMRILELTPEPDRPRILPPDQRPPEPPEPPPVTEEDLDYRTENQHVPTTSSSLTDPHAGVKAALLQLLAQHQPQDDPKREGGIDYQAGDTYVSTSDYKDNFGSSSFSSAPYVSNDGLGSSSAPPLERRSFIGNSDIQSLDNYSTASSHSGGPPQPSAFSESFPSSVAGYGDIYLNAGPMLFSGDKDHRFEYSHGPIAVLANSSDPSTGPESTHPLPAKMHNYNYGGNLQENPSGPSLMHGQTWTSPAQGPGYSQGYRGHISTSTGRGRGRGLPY
Chain of CHED (O75909 whole entry partner, the tested form may be a part): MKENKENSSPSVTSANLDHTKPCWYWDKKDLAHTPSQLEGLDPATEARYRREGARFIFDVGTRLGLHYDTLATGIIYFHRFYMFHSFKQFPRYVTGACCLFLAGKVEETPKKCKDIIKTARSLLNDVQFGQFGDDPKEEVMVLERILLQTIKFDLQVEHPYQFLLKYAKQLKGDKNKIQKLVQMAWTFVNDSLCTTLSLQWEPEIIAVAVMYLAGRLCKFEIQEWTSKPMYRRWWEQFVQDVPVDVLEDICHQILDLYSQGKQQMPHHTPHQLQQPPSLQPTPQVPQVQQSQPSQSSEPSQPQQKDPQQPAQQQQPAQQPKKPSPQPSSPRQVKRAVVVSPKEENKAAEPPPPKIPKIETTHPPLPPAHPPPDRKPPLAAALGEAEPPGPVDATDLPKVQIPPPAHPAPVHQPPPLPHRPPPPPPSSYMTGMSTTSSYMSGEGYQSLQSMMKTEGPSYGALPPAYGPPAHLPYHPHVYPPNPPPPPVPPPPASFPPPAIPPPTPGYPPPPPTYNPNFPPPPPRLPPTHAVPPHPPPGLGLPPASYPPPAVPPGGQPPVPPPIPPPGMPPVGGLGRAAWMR

JAK3 domain2 = molecular target: T2, JAK3 domain2 (Homo sapiens, UniProt P52333); assay: KiNativ, OCI cells live cell; type: cell-based; settings: 2 h, labeling site Lys1, peptide […]
T2 construct: JAK3 domain2
T2 sequence (P52333 whole entry, the tested form may be a part): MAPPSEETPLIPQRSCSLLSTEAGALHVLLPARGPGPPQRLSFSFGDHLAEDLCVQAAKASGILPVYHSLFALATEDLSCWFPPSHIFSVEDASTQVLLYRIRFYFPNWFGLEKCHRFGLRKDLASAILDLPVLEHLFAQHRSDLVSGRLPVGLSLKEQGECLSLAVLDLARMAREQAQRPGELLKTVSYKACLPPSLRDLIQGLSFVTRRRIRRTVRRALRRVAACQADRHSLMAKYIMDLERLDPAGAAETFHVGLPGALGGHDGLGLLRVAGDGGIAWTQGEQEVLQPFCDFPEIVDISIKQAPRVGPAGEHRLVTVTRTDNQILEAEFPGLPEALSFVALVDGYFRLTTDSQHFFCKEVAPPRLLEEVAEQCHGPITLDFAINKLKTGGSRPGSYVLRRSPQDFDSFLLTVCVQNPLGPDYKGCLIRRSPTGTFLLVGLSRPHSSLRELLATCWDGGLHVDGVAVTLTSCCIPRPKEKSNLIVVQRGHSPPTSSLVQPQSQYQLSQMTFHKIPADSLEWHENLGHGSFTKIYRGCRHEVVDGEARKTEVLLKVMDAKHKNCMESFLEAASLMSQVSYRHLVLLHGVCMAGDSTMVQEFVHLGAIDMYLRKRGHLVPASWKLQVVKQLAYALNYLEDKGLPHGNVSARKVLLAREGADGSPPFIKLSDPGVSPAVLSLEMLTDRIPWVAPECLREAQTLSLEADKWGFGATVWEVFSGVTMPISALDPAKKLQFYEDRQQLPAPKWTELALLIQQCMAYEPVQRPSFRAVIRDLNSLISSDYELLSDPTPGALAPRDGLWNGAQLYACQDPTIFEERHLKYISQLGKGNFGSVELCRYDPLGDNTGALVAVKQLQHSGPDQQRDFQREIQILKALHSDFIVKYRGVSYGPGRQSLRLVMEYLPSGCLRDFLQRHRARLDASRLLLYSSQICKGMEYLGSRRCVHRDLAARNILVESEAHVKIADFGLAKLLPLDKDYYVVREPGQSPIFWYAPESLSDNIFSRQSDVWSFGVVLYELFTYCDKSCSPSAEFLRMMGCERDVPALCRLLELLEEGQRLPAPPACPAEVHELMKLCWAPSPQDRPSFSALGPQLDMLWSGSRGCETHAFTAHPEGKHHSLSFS

PIK3CD = PIK3CD (Homo sapiens, UniProt O00329); assay: KiNativ, OCI cells live cell; type: cell-based; settings: 2 h, labeling site ATP, peptide […]
Chain of PIK3CD (O00329 whole entry): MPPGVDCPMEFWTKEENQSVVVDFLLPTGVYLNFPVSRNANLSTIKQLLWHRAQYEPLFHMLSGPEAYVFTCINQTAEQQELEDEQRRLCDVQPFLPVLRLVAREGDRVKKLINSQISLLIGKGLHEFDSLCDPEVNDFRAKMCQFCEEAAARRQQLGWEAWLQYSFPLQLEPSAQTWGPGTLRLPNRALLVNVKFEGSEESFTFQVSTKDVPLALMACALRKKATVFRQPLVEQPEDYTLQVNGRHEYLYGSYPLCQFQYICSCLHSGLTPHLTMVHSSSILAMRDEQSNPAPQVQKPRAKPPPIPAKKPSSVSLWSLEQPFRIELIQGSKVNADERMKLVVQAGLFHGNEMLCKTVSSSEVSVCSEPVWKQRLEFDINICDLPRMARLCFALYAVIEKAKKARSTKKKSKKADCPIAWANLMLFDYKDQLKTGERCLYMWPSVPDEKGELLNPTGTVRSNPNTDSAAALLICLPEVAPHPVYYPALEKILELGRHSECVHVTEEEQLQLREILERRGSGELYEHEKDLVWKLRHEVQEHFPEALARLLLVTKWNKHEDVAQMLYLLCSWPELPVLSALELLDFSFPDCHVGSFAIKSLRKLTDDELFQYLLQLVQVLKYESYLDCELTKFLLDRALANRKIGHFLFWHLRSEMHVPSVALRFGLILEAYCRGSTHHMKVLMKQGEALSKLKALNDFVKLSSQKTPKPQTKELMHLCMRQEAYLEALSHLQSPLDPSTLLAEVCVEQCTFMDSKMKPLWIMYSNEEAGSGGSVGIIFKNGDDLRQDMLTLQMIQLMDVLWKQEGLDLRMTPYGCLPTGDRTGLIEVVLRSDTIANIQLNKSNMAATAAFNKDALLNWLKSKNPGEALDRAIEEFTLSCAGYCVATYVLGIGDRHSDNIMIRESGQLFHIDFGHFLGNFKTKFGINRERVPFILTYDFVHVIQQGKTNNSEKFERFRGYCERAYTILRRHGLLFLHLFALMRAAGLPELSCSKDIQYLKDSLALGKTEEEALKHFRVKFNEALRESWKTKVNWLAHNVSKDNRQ
Chain of PIK3CD (P27986 whole entry partner): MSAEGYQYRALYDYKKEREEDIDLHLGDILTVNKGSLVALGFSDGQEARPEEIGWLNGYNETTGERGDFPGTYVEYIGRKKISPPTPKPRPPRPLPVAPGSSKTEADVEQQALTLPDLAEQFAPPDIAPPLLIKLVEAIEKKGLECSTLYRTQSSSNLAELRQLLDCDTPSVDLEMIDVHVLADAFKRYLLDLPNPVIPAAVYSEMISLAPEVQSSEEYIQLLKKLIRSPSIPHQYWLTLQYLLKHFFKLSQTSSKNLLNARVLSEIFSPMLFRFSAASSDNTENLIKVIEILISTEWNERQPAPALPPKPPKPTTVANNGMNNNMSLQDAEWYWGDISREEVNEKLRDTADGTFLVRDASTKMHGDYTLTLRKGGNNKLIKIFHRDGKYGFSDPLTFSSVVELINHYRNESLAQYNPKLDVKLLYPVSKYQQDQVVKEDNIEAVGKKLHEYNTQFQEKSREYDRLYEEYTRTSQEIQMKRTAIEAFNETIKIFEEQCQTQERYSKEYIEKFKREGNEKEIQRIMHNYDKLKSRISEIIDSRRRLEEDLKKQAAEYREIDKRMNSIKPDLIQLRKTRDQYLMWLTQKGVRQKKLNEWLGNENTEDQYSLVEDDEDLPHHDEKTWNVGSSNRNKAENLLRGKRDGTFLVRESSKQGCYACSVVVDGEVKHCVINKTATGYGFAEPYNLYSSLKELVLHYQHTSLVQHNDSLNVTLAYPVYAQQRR

SMILES	Median survival (MOLM13-RES-Luc+ cells)	Inhibition (LATS2; labeling site Lys1, peptide VDTHALYAMKTLR)	Inhibition (LATS2; labeling site Lys2, peptide DIKPDNILIDLDGHIK)	Inhibition (CHED)	Leukemic cell outgrowth compared with vehicle or gilteritinib (MOLM13-RES-Luc+ cells; 60mg/kg once daily 5 days/week)	inhibition at 0.1 µM (JAK3 domain2)	inhibition at 0.1 µM (PIK3CD)
CCc1nc(C(N)=O)c(Nc2ccc(N3CCC(N4CCN(C)CC4)CC3)c(OC)c2)nc1NC1CCOCC1 [Gilteritinib, gilteritinib]	34 days	–	–	–	–	–	–
CN1CCN(Cc2ccc(Nc3ncc(Cl)c(Nc4ccccc4S(=O)(=O)N(C)C)n3)cc2)CC1 [TP-0903]	31 days	-1.0%	-30.2%	14.4%	significantly reduced	31%	-5.6%
